Usually IC50 stands for the concentration at which inhibition is half-maximal.

We go through 18 molecules from US20230092890A1, “1, 3, 4-Oxadiazole derivative compounds as histone deacetylase 6 inhibitor, and the pharmaceutical composition comprising the same” (Chong Kun Dang Pharmaceutical Corp., priority 2019, published 2023).

In one experiment the target is T1, HDAC1 (Homo sapiens, UniProt Q13547).
T1 construct: purchased Enzolifesciences BML-AK511
Description: HDAC enzyme activity inhibition (in vitro), HDAC1 Fluorimetric Drug Discovery Assay Kit. It is filed as biochemical. The settings on record: samples at 100, 1000 and 10000 nM; 37° C. 60 minutes; fluorescence Ex 390, Em 460; read-out: HDAC1 IC50. How it is done:
<Experimental Example 1> Identification of HDAC Enzyme Activity Inhibition (In Vitro)
A selective HDAC6 inhibitor is important for selectivity of HDAC1 inhibition, which is a cause of side effects, and thus HDAC1/6 enzyme selectivity and cell selectivity (HDAC1: histone acetylation/HDAC6: tubulin acetylation) were identified.
A HDAC enzyme inhibitory capacity of a test material was measured by using HDAC1 Fluorimetric Drug Discovery Assay Kit (Enzolifesciences: BML-AK511) and HDAC6 human recombinant (Calbiochem: 382180). For a HDAC1 assay, samples were treated at a concentration of 100, 1000 and 10000 nM. For a HDAC6 assay, samples were treated at a concentration of 0.1, 1, 10, 100 and 1000 nM. After the above sample treatment, a reaction was continued at 37° C. for 60 minutes, then treated with a developer, and then subjected to a reaction at 37° C. for 30 minutes, after which fluorescence intensity (Ex 390, Em 460) was measured by using FlexStatin3 (Molecular device).

The next experiment has as its target T2, HDAC6 human recombinant (Homo sapiens, UniProt Q9UBN7).
T2 construct: purchased Calbiochem 382180
T2 sequence (Q9UBN7 1-1215): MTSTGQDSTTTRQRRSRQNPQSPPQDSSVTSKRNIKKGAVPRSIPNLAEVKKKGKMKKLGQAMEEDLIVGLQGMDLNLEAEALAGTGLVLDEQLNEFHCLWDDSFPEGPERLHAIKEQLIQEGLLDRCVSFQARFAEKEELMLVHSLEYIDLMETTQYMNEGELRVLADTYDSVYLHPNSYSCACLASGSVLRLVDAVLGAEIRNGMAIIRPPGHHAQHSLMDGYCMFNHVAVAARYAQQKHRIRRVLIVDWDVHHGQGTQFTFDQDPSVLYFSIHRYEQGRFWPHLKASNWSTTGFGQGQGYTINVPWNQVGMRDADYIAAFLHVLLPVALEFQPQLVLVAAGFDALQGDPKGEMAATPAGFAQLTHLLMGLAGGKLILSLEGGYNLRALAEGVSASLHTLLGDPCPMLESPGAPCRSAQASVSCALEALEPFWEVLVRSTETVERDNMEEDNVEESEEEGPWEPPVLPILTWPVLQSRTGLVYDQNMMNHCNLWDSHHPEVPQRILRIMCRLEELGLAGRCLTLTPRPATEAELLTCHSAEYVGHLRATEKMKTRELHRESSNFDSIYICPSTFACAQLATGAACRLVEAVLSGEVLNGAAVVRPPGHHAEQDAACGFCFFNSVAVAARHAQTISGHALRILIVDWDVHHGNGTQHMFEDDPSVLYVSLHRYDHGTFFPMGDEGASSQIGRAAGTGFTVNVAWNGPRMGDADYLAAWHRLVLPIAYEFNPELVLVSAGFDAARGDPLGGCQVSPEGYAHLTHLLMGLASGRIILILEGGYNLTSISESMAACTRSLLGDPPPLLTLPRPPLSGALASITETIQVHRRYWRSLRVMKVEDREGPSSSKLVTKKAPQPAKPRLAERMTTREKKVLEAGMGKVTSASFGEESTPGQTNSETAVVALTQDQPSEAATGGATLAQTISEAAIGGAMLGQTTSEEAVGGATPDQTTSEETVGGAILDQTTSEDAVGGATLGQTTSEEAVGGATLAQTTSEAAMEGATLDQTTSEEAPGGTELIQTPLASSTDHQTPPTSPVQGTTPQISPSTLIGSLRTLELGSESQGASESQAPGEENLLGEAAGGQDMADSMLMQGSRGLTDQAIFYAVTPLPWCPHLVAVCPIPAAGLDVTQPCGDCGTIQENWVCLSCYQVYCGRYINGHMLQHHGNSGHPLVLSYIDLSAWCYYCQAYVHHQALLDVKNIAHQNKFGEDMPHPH
As to the kind of experiment: HDAC enzyme activity inhibition (in vitro), HDAC6 assay. It is filed as biochemical. The settings on record: samples at 0.1, 1, 10, 100 and 1000 nM; 37° C. 60 minutes; fluorescence Ex 390, Em 460; read-out: HDAC6 IC50. On the procedure:
A HDAC enzyme inhibitory capacity of a test material was measured by using HDAC1 Fluorimetric Drug Discovery Assay Kit (Enzolifesciences: BML-AK511) and HDAC6 human recombinant (Calbiochem: 382180). For a HDAC1 assay, samples were treated at a concentration of 100, 1000 and 10000 nM. […] After the above sample treatment, a reaction was continued at 37° C. for 60 minutes, then treated with a developer, and then subjected to a reaction at 37° C. for 30 minutes, after which fluorescence intensity (Ex 390, Em 460) was measured by using FlexStatin3 (Molecular device).

T1 sequence (Q13547 whole entry): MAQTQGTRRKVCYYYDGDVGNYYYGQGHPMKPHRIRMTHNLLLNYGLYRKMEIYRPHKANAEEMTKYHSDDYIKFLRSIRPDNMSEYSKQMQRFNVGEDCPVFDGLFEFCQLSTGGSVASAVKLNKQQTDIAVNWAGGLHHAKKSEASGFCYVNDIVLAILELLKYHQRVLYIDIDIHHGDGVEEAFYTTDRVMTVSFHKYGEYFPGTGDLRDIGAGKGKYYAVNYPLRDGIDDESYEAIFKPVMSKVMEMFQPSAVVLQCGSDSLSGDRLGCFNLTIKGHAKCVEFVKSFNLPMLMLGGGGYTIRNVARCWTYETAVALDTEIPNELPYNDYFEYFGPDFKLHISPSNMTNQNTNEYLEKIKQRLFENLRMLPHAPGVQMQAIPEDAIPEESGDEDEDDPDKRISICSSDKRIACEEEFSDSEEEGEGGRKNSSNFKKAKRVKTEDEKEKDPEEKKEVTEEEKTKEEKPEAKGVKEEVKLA

On to `CN1CCC(n2c(=O)n(Cc3ccc(-c4nnc(C(F)F)o4)cc3F)c3ccccc32)CC1` [Compound 1, 1-(4-(5-(difluoromethyl)-1,3,4-oxadiazole-2-yl)-2-fluorobenzyl)-3-(1-methylpiperidine-4-yl)-1,3-dihydro-2H-benzo[d]imidazole-2-one], for which the IC50 is > 10 µM on HDAC1 and 0.236 µM at HDAC6 human recombinant.
In the case of `O=c1n(CCN2CCOCC2)c2ccccc2n1Cc1ccc(-c2nnc(C(F)F)o2)cc1F` [Compound 2, 1-(4-(5-(difluoromethyl)-1,3,4-oxadiazole-2-yl)-2-fluorobenzyl)-3-(2-morpholinoethyl)-1,3-dihydro-2H-benzo[d]imidazole-2-one], the 50% inhibitory concentration (IC50) was > 10 µM at HDAC1 and 0.203 µM on HDAC6 human recombinant.
`CN(C)CCn1c(=O)n(Cc2ccc(-c3nnc(C(F)F)o3)cn2)c2ccccc21` [Compound 3, 1-((5-(5-(difluoromethyl)-1,3,4-oxadiazole-2-yl)pyridine-2-yl)methyl)-3-(2-(dimethylamino)ethyl)-1,3-dihydro-2H-benzo[d]imidazole-2-one]: the figures for the concentration for half-maximal inhibition (IC50) at HDAC1 and on HDAC6 human recombinant were > 10 µM and 0.115 µM, respectively.
Turning to `CN1CCC(n2c(=O)n(Cc3ccc(-c4nnc(C(F)F)o4)cn3)c3ccccc32)CC1` [Compound 4, 1-((5-(5-(difluoromethyl)-1,3,4-oxadiazole-2-yl)pyridine-2-yl)methyl)-3-(1-methylpiperidine-4-yl)-1,3-dihydro-2H-benzo[d]imidazole-2-one], the IC50 is > 10 µM on HDAC1 and 0.178 µM on HDAC6 human recombinant.
On the same counts, the results for `CN1CCC(n2c(=O)n(Cc3ccc(-c4nnc(C(F)F)o4)cc3)c3ccccc32)CC1` [Compound 5, 1-(4-(5-(difluoromethyl)-1,3,4-oxadiazole-2-yl)benzyl)-3-(1-methylpiperidine-4-yl)-1,3-dihydro-2H-benzo[d]imidazole-2-one] are > 10 µM and 0.34 µM.
On the same counts, the results for `CN1CCC(n2c(=O)n(Cc3ccc(-c4nnc(C(F)F)o4)cn3)c3ccccc32)C1` (centres unmarked) [Compound 6, 1-((5-(5-(difluoromethyl)-1,3,4-oxadiazole-2-yl)pyridine-2-yl)methyl)-3-(1-methylpyrrolidine-3-yl)-1,3-dihydro-2H-benzo[d]imidazole-2-one] are > 10 µM and 0.203 µM.
In the same order, the values of `CN1CC(n2c(=O)n(Cc3ccc(-c4nnc(C(F)F)o4)cn3)c3ccccc32)C1` [Compound 7, 1-((5-(5-(difluoromethyl)-1,3,4-oxadiazole-2-yl)pyridine-2-yl)methyl)-3-(1-methylazetidine-3-yl)-1,3-dihydro-2H-benzo[d]imidazole-2-one] are > 10 µM and 0.264 µM.
Regarding `CN1CCC(N2Cc3ccccc3N(Cc3ccc(-c4nnc(C(F)F)o4)cn3)C2=O)CC1` [Compound 8, 1-((5-(5-(difluoromethyl)-1,3,4-oxadiazole-2-yl)pyridine-2-yl)methyl)-3-(1-methylpiperidine-4-yl)-3,4-dihydroquinazoline-2(1H)-one], the IC50 at HDAC1 is > 10 µM; at HDAC6 human recombinant, 0.171 µM.
In the same order, the values of `CN1CC(N2Cc3ccccc3N(Cc3ccc(-c4nnc(C(F)F)o4)cn3)C2=O)C1` [Compound 9, 1-((5-(5-(difluoromethyl)-1,3,4-oxadiazole-2-yl)pyridine-2-yl)methyl)-3-(1-methylazetidine-3-yl)-3,4-dihydroquinazoline-2(1H)-one] are > 10 µM and 0.332 µM.
On the same counts, the results for `CN1CCC(Cn2c(=O)n(Cc3ccc(-c4nnc(C(F)F)o4)cn3)c3ccccc32)CC1` [Compound 10, 1-((5-(5-(difluoromethyl)-1,3,4-oxadiazole-2-yl)pyridine-2-yl)methyl)-3-((1-methylpiperidine-4-yl)methyl)-1,3-dihydro-2H-benzo[d]imidazole-2-one] are > 10 µM and 0.222 µM.
In the same order, the values of `O=c1n(Cc2ccc(-c3nnc(C(F)F)o3)cn2)c2ccccc2n1C1COC1` [Compound 11, 1-((5-(5-(difluoromethyl)-1,3,4-oxadiazole-2-yl)pyridine-2-yl)methyl)-3-(oxetan-3-yl)-1,3-dihydro-2H-benzo[d]imidazole-2-one] are > 10 µM and 0.241 µM.
As for `O=c1n(Cc2ccc(-c3nnc(C(F)F)o3)cn2)c2ccccc2n1C1CCOCC1` [Compound 12, 1-((5-(5-(difluoromethyl)-1,3,4-oxadiazole-2-yl)pyridine-2-yl)methyl)-3-(tetrahydro-2H-pyran-4-yl)-1,3-dihydro-2H-benzo[d]imidazole-2-one], the IC50 at HDAC1 was > 10 µM; at HDAC6 human recombinant, 0.16 µM.
On the same counts, the results for `O=c1n(Cc2ccc(-c3nnc(C(F)F)o3)cn2)c2ccccc2n1C1CCS(=O)(=O)CC1` [Compound 13, 1-((5-(5-(difluoromethyl)-1,3,4-oxadiazole-2-yl)pyridine-2-yl)methyl)-3-(1,1-dioxydotetrahydro-2H-thiopyran-4-yl)-1,3-dihydro-2H-benzo[d]imidazole-2-one] are > 10 µM and 0.161 µM.
On the same counts, the results for `CCN1CCC(n2c(=O)n(Cc3ccc(-c4nnc(C(F)F)o4)cc3F)c3ccccc32)CC1` [Compound 14, 1-(4-(5-(difluoromethyl)-1,3,4-oxadiazole-2-yl)-2-fluorobenzyl)-3-(1-ethylpiperidine-4-yl)-1,3-dihydro-2H-benzo[d]imidazole-2-one] are > 10 µM and 0.209 µM.
Regarding `O=c1n(Cc2ccc(-c3nnc(C(F)F)o3)cn2)c2cc(F)ccc2n1C1CCN(C2CCC2)CC1` [Compound 52, 1-(1-cyclobutylpiperidine-4-yl)-3-((5-(5-(difluoromethyl)-1,3,4-oxadiazole-2-yl)pyridine-2-yl)methyl)-5-fluoro-1,3-dihydro-2H-benzo[d]imidazole-2-one], at HDAC1, the half-maximal inhibitory concentration (IC50) was > 10 µM.
The same measure, in the same setting: to `O=c1n(Cc2ccc(-c3nnc(C(F)F)o3)cn2)c2cc(F)ccc2n1C1CCS(=O)(=O)CC1` [Compound 188, 3-((5-(5-(difluoromethyl)-1,3,4-oxadiazole-2-yl)pyridine-2-yl)methyl)-1-(1,1-dioxydotetrahydro-2H-thiopyran-4-yl)-5-fluoro-1,3-dihydro-2H-benzo[d]imidazole-2-one] belongs > 10 µM; to `Cn1nccc1-c1cc2c(cc1F)n(Cc1ccc(-c3nnc(C(F)F)o3)cn1)c(=O)n2C` [Compound 226, 1-((5-(5-(difluoromethyl)-1,3,4-oxadiazole-2-yl)pyridine-2-yl)methyl)-6-fluoro-3-methy 1-5-(1-methyl-1H-pyrazole-5-yl)-1,3-dihydro-2H-benzo[d]imidazole-2-one], > 10 µM; to `CN1CCN(c2cc3c(cc2F)n(Cc2ccc(-c4nnc(C(F)F)o4)cn2)c(=O)n3C)CC1` [Compound 260, 1-((5-(5-(difluoromethyl)-1,3,4-oxadiazole-2-yl)pyridine-2-yl)methyl)-6-fluoro-3-methy 1-5-(4-methylpiperazine-1-yl)-1,3-dihydro-2H-benzo[d]imidazole-2-one], > 10 µM.
